Numbered stars: 1 amine (or outer) side, 2 acyl side, 3 side chain; on linkers, the order of the positions; unused ones are H or OH. Square brackets hold non-standard residues; d marks the D form. Peptide text beside a SMILES is read from it. * marks the point of attachment. Isobutyloxycarbonyl = CC(C)COC(=O)*; Ala(cPr) = N[C@@H](CC1CC1)C(=O)O; X1 = CCCC(N[*:1])C(=O)C(=O)[*:2]; Ahp(2) = CCCCC[C@H](N)C(=O)O; Cba = N[C@@H](CC1CCC1)C(=O)O; Chg = N[C@H](C(=O)O)C1CCCCC1; Phg = N[C@H](C(=O)O)c1ccccc1; hLeu = CC(C)CC[C@H](N)C(=O)O

The target in the experiment is NS3 (Hepatitis C virus, UniProt A3EZJ3). As to the kind of experiment: Inhibitory activity against HCV NS3 serine protease 1. Also noted: species or system Hepacivirus hominis.
Chain of NS3 (A3EZJ3 whole entry): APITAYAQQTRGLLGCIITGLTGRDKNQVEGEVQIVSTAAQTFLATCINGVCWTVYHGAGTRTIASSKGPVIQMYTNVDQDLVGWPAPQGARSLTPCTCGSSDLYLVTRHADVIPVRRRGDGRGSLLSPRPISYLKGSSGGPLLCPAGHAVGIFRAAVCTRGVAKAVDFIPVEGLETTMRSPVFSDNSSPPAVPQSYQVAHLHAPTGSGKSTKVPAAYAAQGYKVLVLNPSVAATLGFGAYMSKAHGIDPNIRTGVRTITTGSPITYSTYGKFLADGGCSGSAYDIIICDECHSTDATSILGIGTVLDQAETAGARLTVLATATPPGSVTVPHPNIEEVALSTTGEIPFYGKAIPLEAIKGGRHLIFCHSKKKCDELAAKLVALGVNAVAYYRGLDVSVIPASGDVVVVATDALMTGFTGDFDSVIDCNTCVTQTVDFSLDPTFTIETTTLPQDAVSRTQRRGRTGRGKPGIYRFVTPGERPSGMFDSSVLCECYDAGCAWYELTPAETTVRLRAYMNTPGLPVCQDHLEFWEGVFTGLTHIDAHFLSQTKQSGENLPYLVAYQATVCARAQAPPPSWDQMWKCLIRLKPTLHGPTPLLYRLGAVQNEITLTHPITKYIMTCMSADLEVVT
As to `CCCC(NC(=O)[C@H](CCC(C)C)NC(=O)[C@@H](NC(=O)OCC(C)C)C1CCCCC1)C(=O)C(=O)NCC(=O)N[C@H](C(=O)O)c1ccccc1` (some centres undefined) (Isobutyloxycarbonyl-[Chg][hLeu][X1]G[Phg]-OH), the affinity corresponds to a Ki of 310 nM.
For `CCCC(NC(=O)[C@H](CC1CC1)NC(=O)[C@@H](NC(=O)OCC(C)C)C1CCCCC1)C(=O)C(=O)NCC(=O)N[C@H](C(=O)O)c1ccccc1` (some centres undefined) (Isobutyloxycarbonyl-[Chg][Ala(cPr)][X1]G[Phg]-OH) the value was 50 nM.
For `CCCCC[C@H](NC(=O)[C@@H](NC(=O)OCC(C)C)C1CCCCC1)C(=O)NC(CCC)C(=O)C(=O)NCC(=O)N[C@H](C(=O)O)c1ccccc1` (some centres undefined) (Isobutyloxycarbonyl-[Chg][Ahp(2)][X1]G[Phg]-OH) the value was 300 nM.
For the compound `CCCC(NC(=O)[C@H](CC1OCCCO1)NC(=O)[C@@H](NC(=O)OCC(C)C)C1CCCCC1)C(=O)C(=O)NCC(=O)N[C@H](C(=O)O)c1ccccc1` (some centres undefined), the Ki (as a rule, the dissociation constant of the complex between target and ligand, obtained from inhibition or displacement) amounted to 430 nM.
The same measure for `CCCC(NC(=O)[C@H](CC1SCCCS1)NC(=O)[C@@H](NC(=O)OCC(C)C)C1CCCCC1)C(=O)C(=O)NCC(=O)N[C@H](C(=O)O)c1ccccc1` (some centres undefined): 250 nM; for `CCCC(NC(=O)[C@H](CC1SCCS1)NC(=O)[C@@H](NC(=O)OCC(C)C)C1CCCCC1)C(=O)C(=O)NCC(=O)N[C@H](C(=O)O)c1ccccc1` (some centres undefined): 90 nM; for `CCCC(NC(=O)[C@H](CC1CCC1)NC(=O)[C@@H](NC(=O)OCC(C)C)C1CCCCC1)C(=O)C(=O)NCC(=O)N[C@H](C(=O)O)c1ccccc1` (some centres undefined) (Isobutyloxycarbonyl-[Chg][Cba][X1]G[Phg]-OH): 140 nM.
The same measure for `CCCC(NC(=O)[C@H](CC1OCCO1)NC(=O)[C@@H](NC(=O)OCC(C)C)C1CCCCC1)C(=O)C(=O)NCC(=O)N[C@H](C(=O)O)c1ccccc1` (some centres undefined): 300 nM; for `CCCC(NC(=O)[C@H](CC1SCc2ccccc2CS1)NC(=O)[C@@H](NC(=O)OCC(C)C)C1CCCCC1)C(=O)C(=O)NCC(=O)N[C@H](C(=O)O)c1ccccc1` (some centres undefined): 2300 nM.

Values taken from ChEMBL document CHEMBL1142850, “Hepatitis C virus NS3-4A serine protease inhibitors: use of a P2-P1 cyclopropyl alanine combination for improved potency” (Bioorg Med Chem Lett, 2005).
